{
  "source": "patent US5427999A",
  "about": "“Amine adducts as corrosion inhibitors” (Exxon Chemical Patents Inc., priority 1991, dated 1995)",
  "key": {"Skeletonema costatum [1]": {"tested_on": "Skeletonema costatum", "experiment": "Marine phytoplankton inhibition of growth rate", "type": "cell-based, Skeletonema costatum (Greville) Cleve, Clone Skel-5", "conditions": "72 h, control compound, measured in this test, read-out: normal growth rate, measured in this test", "experimental": "Growth inhibition tests have also been carried out to assess the impact of the compounds on the, marine algae Skeletonema Costatum. This is a test which is becoming required by some offshore authorities, and is therefore of particular interest when considering the practical applications of the compounds.\nTest organisms: Skeletonema costatum (Greville) Cleve, Clone Skel-5.\nIncubation: 3 days at 14° C., in light/darkness cycles of 14 hrs/10 hrs.\nTest samples: Aliquots of each sample are weighed into phytoplankton medium and extracted; moderate shaking for 20 hrs at 14° C.\nControl compound: Na-dodecyl-sulphate. Normally a concentration of 1.3 mg/kg gives 30 to 70% of normal growth rate. Measured in this test: 30% to 55%.\nResults were calculated as the concentration of compound required to inhibit 50% growth of algae during three days of exposure, termed EC50, given in mg/kg (ppm). The interval EC20 to EC80 is also given."}, "Skeletonema costatum [2]": {"tested_on": "Skeletonema costatum", "conditions": "normally a concentration of 1.3 mg/kg, 4320 min; cited from earlier work"}},
  "data": [
    {"smiles": "CCCCCCCCCCCCOS(=O)(=O)O", "note": "[Na-dodecyl-sulphate]", "values": [
      {"measurement": "activity at 1.3 mg/kg", "setting": "Skeletonema costatum [1]", "value": "30 to 55", "unit": "%"},
      {"measurement": "normal growth rate, normally given by control compound", "setting": "Skeletonema costatum [2]", "value": "30 to 70", "unit": "%"}
    ]}
  ]
}
